The text below walks through data of a melting point compilation (Tetko et al.).

SMILES strings stand for the structures.

`N#CCC(=O)Nc1ccc(C(=O)O)cc1` came in with a melting point of 195 to 197 °C.

The compound `CCOc1cc(C(=O)O)ccc1OC(F)F` came in with a melting point of 159 to 161 °C.

`Cc1ccn2c(=O)c(C(=O)O)cnc2c1` displayed a melting point of 241 to 243 °C.

On to `CC(C)NCCc1nc(-c2ccc(S(C)(=O)=O)cc2)c[nH]1`, for which the melting point was in the range of 264 to 266 °C.

Consider `COCCS(=O)(=O)c1ccc(Cl)c(C(=O)O)c1Cl`, for which the melting point lay in the range of 129 to 131 °C.

For `Cc1nc(S)nc(O)c1CCO`, the melting point lay in the range of 263 to 265 °C.

On to `CC(C)CCC(=O)NCCCS(N)(=O)=O`, for which the melting point fell in the range of 90 to 92 °C.

Turning to `Cc1cc(C(=O)O)ccc1N1CCCS1(=O)=O`, the melting point was 174 to 176 °C.

As for `CC1CNc2ccccc2N(Cc2ccccc2)C1=O` (stereo unspecified), the melting point lay within 107 to 109 °C.

Compound `Cc1c(C(=O)O)nnn1-c1cccc([N+](=O)[O-])c1` had a melting point of 169 to 171 °C.

With `CC1CCc2c(sc(N)c2C(N)=O)C1` (stereo unspecified), the melting point was in the range of 188 to 190 °C.

As to `Clc1nccc(-n2cccn2)n1`, the melting point fell in the range of 118 to 120 °C.

In turn, `O=C(O)Cn1ccc(=O)c([N+](=O)[O-])c1` came in with a melting point of 249 to 251 °C.

`CC(C)Oc1ccc(-c2csc(N)n2)cc1` gave a melting point of 191 to 193 °C.

`CCc1ccc(OCc2nnc(S)n2Cc2ccccc2)cc1` came in with a melting point of 137 to 139 °C.

Take `COc1cc(NC(C)=O)c(C(=O)O)cc1OC`: the melting point lay in the range of 229 to 231 °C.

`COC(=O)c1cc([N+](=O)[O-])c[nH]c1=O` displayed a melting point of 254 to 256 °C.

On to `CC(C)C1CNc2ccccc2N1` (stereo unspecified), for which the melting point is 73 to 75 °C.

As to `CC(C)CCn1nc(C(=O)O)c2ccccc2c1=O`, the melting point is 133 to 135 °C.

For `COC(=O)c1ccc(Br)c(S(=O)(=O)Cl)c1`, the melting point was in the range of 102 to 104 °C.

In turn, `CC(C)(C(N)=S)c1ccccc1` gave a melting point of 99 to 101 °C.

As to `COc1cc(OC)c2cc(C(=O)O)[nH]c2c1OC`, the melting point lay in the range of 181 to 183 °C.

`COC(=O)c1c(C)n(C2CC2)c2ccc(O)cc12` gave a melting point of 193 to 195 °C.

`O=[N+]([O-])c1ccc(-c2ncc(CO)o2)cc1` gave a melting point of 154 to 156 °C.

For the compound `COC(=O)c1cc(N2CCOCC2)ccc1N`, the melting point lay within 106 to 108 °C.

As for `CC(C)CC(N)c1nc(-c2nnc[nH]2)no1` (stereo unspecified), the melting point was in the range of 203 to 205 °C.

Turning to `CN(CC(=O)O)C(N)=O`, the melting point lay within 141 to 143 °C.

For `CCCCN(C)c1ccc(C(=O)O)cc1`, the melting point is 134 to 136 °C.

Turning to `NC(=O)CC(NS(=O)(=O)c1cccc(F)c1)C(=O)O` (stereo unspecified), the melting point fell in the range of 173 to 175 °C.

The compound `O=C(O)c1cn(Cc2ccccc2)nn1` came in with a melting point of 176 to 178 °C.

`C=CCS(N)(=O)=O`: the melting point is 31 to 33 °C.

`Nc1ccc(-c2n[nH]c(=O)[nH]2)cc1` had a melting point of 333 to 335 °C.

With `CC(NC(=O)C1CCOCC1)C(=O)O` (stereo unspecified), the melting point lay in the range of 178 to 180 °C.

As for `Cn1ccc(C(=O)c2ccc(F)cc2)n1`, the melting point is 68 to 70 °C.

`CC(C)c1ccc(-c2nnc(N)s2)cc1` showed a melting point of 205 to 207 °C.

Compound `NS(=O)(=O)N1CCOc2ccccc21` gave a melting point of 135 to 137 °C.

In turn, `O=C(O)c1c[nH]nc1-c1ccc(F)c(Cl)c1` displayed a melting point of 282 to 284 °C.

The compound `O=C(c1ccccn1)N1CCNCC1` registered a melting point of 231 to 233 °C.

`Nc1nc(C(F)(F)F)c[nH]1`: the melting point was in the range of 121 to 123 °C.

`CC1(C(=O)O)CCCN(C(=O)c2ccccc2)C1` (stereo unspecified): the melting point lay within 151 to 153 °C.

Turning to `NS(=O)(=O)c1ccccc1OC(F)F`, the melting point fell in the range of 133 to 135 °C.

`c1cc2c(cn1)NCCN2` showed a melting point of 135 to 137 °C.

As for `Cc1c(C(=O)O)sc2nnc(S)n12`, the melting point fell in the range of 275 to 277 °C.

Compound `O=C(CO)N1CCOCC1` yielded a melting point of 77 to 79 °C.

On to `COc1ccc(C(C)=O)cc1CSc1nnnn1C`, for which the melting point lay in the range of 64 to 66 °C.

`NC(=O)c1ccccc1OCCO` returned a melting point of 112 to 114 °C.

As for `COc1ccc(C(=O)CBr)cc1Cl`, the melting point fell in the range of 99 to 101 °C.

`CN(C)CCN1C(=O)C=CC1=O` came in with a melting point of 44 to 46 °C.

`CCOC(=O)c1c(N)n(CCO)c2nc3ccccc3nc12`: the melting point was 226 to 228 °C.

`CC(C)CC(=O)Nc1ccc(C(=O)O)cc1F` gave a melting point of 257 to 259 °C.

In the case of `O=C(O)C1CCN(c2ccc(S(=O)(=O)N3CCOCC3)cc2[N+](=O)[O-])CC1`, the melting point lay in the range of 225 to 227 °C.

On to `O=c1c(Cl)c(Cl)cnn1-c1ccc(Cl)cc1Cl`, for which the melting point lay within 200 to 202 °C.

Compound `O=C(O)CC1CCc2ccccc2C1` (stereo unspecified) had a melting point of 80 to 82 °C.

In turn, `O=C(Nc1ccccc1)c1cccc(O)c1` registered a melting point of 151 to 153 °C.

`CNC1CCCN(c2ccccc2)C1=O` (stereo unspecified): the melting point fell in the range of 76 to 78 °C.

As for `O=[N+]([O-])c1ccc(-c2noc(C(F)F)n2)cc1`, the melting point was 76 to 78 °C.

Turning to `NS(=O)(=O)Cc1cccc2cccnc12`, the melting point lay in the range of 154 to 156 °C.

Compound `NC(=O)c1ncon1` came in with a melting point of 156 to 158 °C.

The compound `COc1ccc(CNc2cnn(C)c2)c(OC)c1` yielded a melting point of 81 to 83 °C.

On to `CC(=O)N1CCCNc2ccccc21`, for which the melting point was in the range of 132 to 134 °C.

`CCOC(=O)Cn1nc(C)c(C=O)c1C`: the melting point was 79 to 81 °C.

The compound `O=Cc1ccc(OCc2ccccn2)cc1` gave a melting point of 88 to 90 °C.

For `O=C(O)C1CCCN(S(=O)(=O)c2ccc(F)cc2)C1` (stereo unspecified), the melting point was 156 to 160 °C.

As to `O=C(O)CCc1nnnn1-c1ccccc1`, the melting point lay within 119 to 121 °C.

`O=C1CN(c2cc(Cl)ccc2Cl)CC(=O)N1`: the melting point lay within 139 to 141 °C.

Turning to `O=C1CC2(CCCCC2)CN1`, the melting point was 89 to 91 °C.

As to `CC(C)NS(=O)(=O)c1cccc(C(=O)O)c1`, the melting point lay in the range of 162 to 164 °C.

For the compound `CCN(CC)S(=O)(=O)c1ccc(N2CCCCC2)c(C(=O)O)c1`, the melting point is 157 to 159 °C.

On to `NC(=O)C1CCN(CCc2ccc(N)cc2)CC1`, for which the melting point is 223 to 225 °C.

The compound `COc1ccc(NC(=O)c2c(N)sc3c2CCCC3)cc1` gave a melting point of 158 to 160 °C.

`CC1CC1C(=O)NCCC(=O)O` (stereo unspecified) had a melting point of 94 to 96 °C.

Compound `O=C(O)c1cc(Cl)[nH]c(=O)c1` gave a melting point of 249 to 251 °C.

Compound `Cc1nc2ccccc2nc1CCl` had a melting point of 121 to 123 °C.

For the compound `N#Cc1cc(Cl)ccc1CS(=O)(=O)Cl`, the melting point is 106 to 108 °C.

Turning to `O=C(O)CCC(=O)Nc1nccs1`, the melting point lay in the range of 257 to 259 °C.

`S=C(c1cn(-c2ccccc2)nc1-c1ccccc1)N1CCCCC1`: the melting point lay in the range of 124 to 126 °C.

Compound `O=C(CCCl)Nc1ccc(N2CCCC2=O)cc1` showed a melting point of 194 to 196 °C.

`Nc1nc2ccc(Br)cn2n1` displayed a melting point of 183 to 185 °C.

Take `NCc1cccc(NC(=O)c2ccc(F)cc2)c1`: the melting point was 132 to 134 °C.

`CCN(CC)S(=O)(=O)c1ccc(Cl)nc1`: the melting point was in the range of 82 to 84 °C.

The compound `Cc1cc(N)c(C(N)=O)cc1F` yielded a melting point of 192 to 194 °C.

For the compound `CCOc1cc(C=O)cc(Cl)c1O`, the melting point lay within 145 to 147 °C.

`CC(C)n1ncc(C(=O)O)c1N` yielded a melting point of 109 to 111 °C.

For the compound `COc1ccc2[nH]cc(C(C)=O)c2c1`, the melting point was in the range of 206 to 208 °C.

With `CC(=O)NCC1CCNCC1`, the melting point fell in the range of 97 to 99 °C.

With `CC1Oc2ccc(C(=O)CBr)cc2NC1=O` (stereo unspecified), the melting point is 147 to 149 °C.

For the compound `N#Cc1nc(C2CC2)oc1N1CCNCC1`, the melting point is 99 to 101 °C.

As to `Cc1cc(C)nc(-n2nc(C(=O)O)cc2C)n1`, the melting point was in the range of 189 to 191 °C.

With `CCOC(=O)/C(C#N)=C/Nc1ccc(OCC)cc1`, the melting point is 115 to 117 °C.

In turn, `O=C(O)CCc1csc2ccccc12` showed a melting point of 140 to 142 °C.

Compound `NC(=O)c1ccc(C(=O)O)o1` registered a melting point of 286 to 288 °C.

Consider `O=c1[nH]c2ccccc2cc1CO`, for which the melting point lay within 239 to 241 °C.

Take `CC(C)(C)c1nn(-c2ccccc2)cc1C(=O)O`: the melting point lay within 212 to 214 °C.

In turn, `Nc1cc(Cl)ncn1` had a melting point of 196 to 198 °C.

`CC1CC1C(=O)Nc1ccc(F)cc1C(=O)O` (stereo unspecified) returned a melting point of 173 to 175 °C.

Take `O=S(=O)(c1ccc(Cl)nc1)N1CCCC1`: the melting point was 149 to 151 °C.

In turn, `O=C(O)CNS(=O)(=O)c1ccccc1F` came in with a melting point of 170 to 172 °C.

Turning to `Cc1cccc2c(CCC(=O)O)c[nH]c12`, the melting point was in the range of 149 to 151 °C.

Compound `Nc1ncc(Cl)s1` returned a melting point of 90 to 92 °C.

Turning to `CCCOc1cc2c(cc1OCCC)CCNCC2`, the melting point lay within 61 to 63 °C.

The compound `NC(=O)Cn1cnc([N+](=O)[O-])c1` yielded a melting point of 153 to 155 °C.

Take `O=C(O)Cc1cc2c(ccc3ccccc32)o1`: the melting point lay within 166 to 168 °C.

Turning to `Clc1nnc(-c2cccs2)c2ccccc12`, the melting point was in the range of 128 to 130 °C.

With `NS(=O)(=O)CCCCl`, the melting point was 63 to 65 °C.

As for `Nn1c(S)nnc1-c1ccc(Br)cc1`, the melting point is 202 to 204 °C.

As for `COc1ccccc1NC(=O)Nc1cc(N)ccc1OC`, the melting point was in the range of 167 to 169 °C.

Regarding `O=C(O)c1cc(S(=O)(=O)NCc2cccnc2)c(Cl)cc1Cl`, the melting point fell in the range of 245 to 247 °C.

`Sc1ncnc2ccsc12` registered a melting point of 271 to 273 °C.

Compound `Cc1nc(Cl)c2cnn(-c3ccc(F)cc3)c2n1` had a melting point of 114 to 116 °C.

`CC(C(=O)O)c1cccc(Cl)c1` (stereo unspecified) yielded a melting point of 75 to 77 °C.

As for `N=C1N=C2C=CC(Br)=CN2Cc2ccccc21`, the melting point was 178 to 180 °C.

With `NS(=O)(=O)c1cccc(I)c1`, the melting point lay in the range of 148 to 150 °C.

The compound `COc1cc(Br)c(C=O)c(OC)c1` registered a melting point of 89 to 91 °C.

On to `CNC(=O)c1cc(S(=O)(=O)Cl)cn1C`, for which the melting point was 154 to 156 °C.

In turn, `N#Cc1cccc([N+](=O)[O-])c1O` showed a melting point of 130 to 132 °C.

The compound `NCc1cccc(OCC(N)=O)c1` registered a melting point of 89 to 91 °C.

As to `N#Cc1ncc(C(=O)O)cc1Br`, the melting point lay in the range of 177 to 179 °C.

In turn, `CS(=O)(=O)c1ccc(S)cc1` gave a melting point of 63 to 65 °C.

For `O=c1[nH]c2ccsc2c(=O)o1`, the melting point is 218 to 220 °C.

With `O=C1CCC(c2ccccc2)CCN1` (stereo unspecified), the melting point was 194 to 196 °C.

`O=C(O)c1ccc(CN(Cc2ccccc2)S(=O)(=O)c2ccc(Cl)cc2)cc1` registered a melting point of 203 to 205 °C.
